Test system: SEM cells
Experiment: cell viability relative to DMSO control; higher = less cytotoxic
Details: 48 h
Outline: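 NOMO1 or SEM cells were plated at 500 cells/well and P12-Ichikawa cells at 1000 cells/well in 1536-well plates (5 μl), after each leukemia line had been adapted for at least four passages in each medium. Pin dosing delivered library compounds in DMSO at 11 threefold concentrations, 47 μM to 0.79 nM. CellTiter-Glo One luminescence was read after 48 h at 37°C. Viability is reported as a per-plate percentage of DMSO wells, with cell-free wells as background.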

[1] = HPLM + 10% dialyzed FBS, 0.000781 µM
[2] = HPLM + 10% dialyzed FBS, 0.00234 µM
[3] = HPLM + 10% dialyzed FBS, 0.00702 µM
[4] = HPLM + 10% dialyzed FBS, 0.0211 µM
[5] = HPLM + 10% dialyzed FBS, 0.0632 µM
[6] = HPLM + 10% dialyzed FBS, 0.19 µM
[7] = HPLM + 10% dialyzed FBS, 0.569 µM
[8] = HPLM + 10% dialyzed FBS, 1.71 µM
[9] = HPLM + 10% dialyzed FBS, 5.12 µM
[10] = HPLM + 10% dialyzed FBS, 15.4 µM
[11] = HPLM + 10% dialyzed FBS, 46.1 µM
[12] = RPMI 5 mM glucose + 10% FBS, 0.000781 µM
[13] = RPMI 5 mM glucose + 10% FBS, 0.00234 µM
[14] = RPMI 5 mM glucose + 10% FBS, 0.00702 µM
[15] = RPMI 5 mM glucose + 10% FBS, 0.0211 µM
[16] = RPMI 5 mM glucose + 10% FBS, 0.0632 µM
[17] = RPMI 5 mM glucose + 10% FBS, 0.19 µM
[18] = RPMI 5 mM glucose + 10% FBS, 0.569 µM
[19] = RPMI 5 mM glucose + 10% FBS, 1.71 µM
[20] = RPMI 5 mM glucose + 10% FBS, 5.12 µM
[21] = RPMI 5 mM glucose + 10% FBS, 15.4 µM
[22] = RPMI 5 mM glucose + 10% FBS, 46.1 µM
[23] = RPMI 5 mM glucose + 10% dialyzed FBS, 0.000781 µM
[24] = RPMI 5 mM glucose + 10% dialyzed FBS, 0.00234 µM
[25] = RPMI 5 mM glucose + 10% dialyzed FBS, 0.00702 µM
[26] = RPMI 5 mM glucose + 10% dialyzed FBS, 0.0211 µM
[27] = RPMI 5 mM glucose + 10% dialyzed FBS, 0.0632 µM
[28] = RPMI 5 mM glucose + 10% dialyzed FBS, 0.19 µM
[29] = RPMI 5 mM glucose + 10% dialyzed FBS, 0.569 µM
[30] = RPMI 5 mM glucose + 10% dialyzed FBS, 1.71 µM
[31] = RPMI 5 mM glucose + 10% dialyzed FBS, 5.12 µM
[32] = RPMI 5 mM glucose + 10% dialyzed FBS, 15.4 µM
[33] = RPMI 5 mM glucose + 10% dialyzed FBS, 46.1 µM

SMILES	cell viability [1] [%]	cell viability [2] [%]	cell viability [3] [%]	cell viability [4] [%]	cell viability [5] [%]	cell viability [6] [%]	cell viability [7] [%]	cell viability [8] [%]	cell viability [9] [%]	cell viability [10] [%]	cell viability [11] [%]	cell viability [12] [%]	cell viability [13] [%]	cell viability [14] [%]	cell viability [15] [%]	cell viability [16] [%]	cell viability [17] [%]	cell viability [18] [%]	cell viability [19] [%]	cell viability [20] [%]	cell viability [21] [%]	cell viability [22] [%]	cell viability [23] [%]	cell viability [24] [%]	cell viability [25] [%]	cell viability [26] [%]	cell viability [27] [%]	cell viability [28] [%]	cell viability [29] [%]	cell viability [30] [%]	cell viability [31] [%]	cell viability [32] [%]	cell viability [33] [%]
CC/C(=C(\c1ccccc1)c1ccc(OCCN(C)C)cc1)c1ccccc1	80.9	97.6	107	103	74.6	102	94	108	96.3	86.2	16.8	98.1	99.7	95.8	93.8	66.7	95	99.2	99.9	90.5	91.6	12.5	87.4	87.2	102	95.2	81.7	115	99.4	96.3	95.2	93.9	13
CN1CCN(c2cc(C(=O)Nc3ccc4c(c3)-c3c(c(C(N)=O)nn3-c3ccc(F)cc3)CC4)c(Cl)cn2)CC1	93.3	95.7	103	109	116	110	105	103	110	81.8	4.03	–	–	–	–	–	–	–	–	–	–	–	125	109	121	131	138	120	103	104	109	106	3.39
Cc1nc(C(=O)NCC(=O)O)c(O)c2ccc(Oc3ccccc3)cc12	109	109	115	112	116	108	99.5	115	92.8	102	112	101	108	112	115	103	99.4	95.7	94.8	104	108	99.2	113	112	123	116	119	112	113	113	103	115	122
Cc1nc(N)sc1-c1ccnc(Nc2ccc(N3CCOCC3)cc2)n1	88.8	98.7	102	102	107	107	85.5	83.8	30.5	26.2	31.3	78.7	111	124	106	130	107	94.9	87.1	19.1	14.2	18.1	81	95.6	114	118	112	102	81	73.7	22.4	18.4	17.2
COC1=C(CC=C(C)C)C2=C(\C=C/C(=O)O2)C=C1	83.3	79.7	80.4	89.5	76.9	90.1	74.6	98.6	71.8	71.1	58.5	93.2	103	95.4	117	102	112	100	81.4	77.5	65.9	53.6	108	118	121	103	99.7	113	115	91.8	85	90.2	54.2
COc1ccccc1N1CCN(CC(O)COc2cccc3ccccc23)CC1 (stereo unspecified)	62.9	116	124	131	136	119	111	108	121	109	88.8	–	–	–	–	–	–	–	–	–	–	–	–	–	–	–	–	–	–	–	–	–	–
Oc1ccc(-c2nc(-c3ccncc3)c(-c3ccc(F)cc3)[nH]2)cc1	83.4	90.6	102	107	104	69.1	42.4	45.4	7.43	2.46	0.872	105	86.9	89.5	93.6	76.1	54.7	34.9	30.3	1.32	0.723	0.55	114	99.9	104	98.8	83	48.4	41.3	32.8	5.58	1.19	0.981
O=C1C(CCC(O)c2ccc(F)cc2)C(c2ccc(O)cc2)N1c1ccc(F)cc1 (stereo unspecified)	107	97.3	110	112	103	109	108	101	113	102	104	81.4	98.2	96	111	92.9	100	101	97.1	114	98.8	101	106	113	121	121	128	113	115	121	113	108	108
